# Data from patent US20020061325A1, “Container for 4-allylanisole and analog scolytid pesticides” (priority 1993, published 2002).
# Assays:
# southern pine beetle [1] = test: Laboratory assay for effectiveness of repellent (circle of compound on cardboard, beetle response); format: in vivo; parameters: BEHAVIORAL RATING: scale not given here; conditions: for BEHAVIORAL RATING: numerical score for degree of behavioral response; for repelled behavioral response (in words): laboratory tests
# Description: A) Laboratory Assay for Effectiveness of Repellent
# The candidate compound was applied as a circle (17 cm in diameter by 5 mm in width) to a 28 by 21.5 cm piece of uncoated cardboard using a camel-hair brush. Three minutes after application, a beetle was placed in the center of the circle. In each trial, at least 20 healthy-appearing beetles were tested. Testing was conducted at room temperature (22°-25° C.) with light supplied from an adjoining room. The beetles were briefly refrigerated prior to testing to reduce their tendency to fly immediately upon release. An object was used to cast a shadow over the test circle in order to minimize response to light, which could interfere with the interpretation of insect response to an applied substance.
# southern pine beetle [2] = test: Field assay with frontalure-baited Lindgren funnel traps; format: in vivo; conditions: for rank (relative repellency, 1 = best repellent): frontalure plus test compound; for mean rank: mean over the trials in which the compound was tested; for rank in reduction of trap captures: the two field trials in which they were tested, relative to 4-allylanisole
# Description: B) Field Assays of the Effectiveness of Repellents
# Field assays were carried out with selected 4-allylanisole analogs, including 4-allylanisole, anisole, 4-isopropylanisole, allylbenzene, 4-methylstyrene, toluene, and trans-anethole. The protocol for these assays is similar to that previously described (Hayes, et al., 1994a; Hayes and Strom, 1994c, both incorporated by reference as if fully set forth herein). Populations of local southern pine beetle were tested for response to these compounds using baited Lindgren funnel (16-funnel) traps. Traps were placed in or near active infestations of southern pine beetle over the course of the summer of 1997. Treatment baits consisted of the attractant frontalure and frontalure plus the test compound released from a 4-ml Samco pipette bulb. Hayes, et al., (J. Vozzo [ed.] Research and applications of chemical sciences in forestry: Proceeding of the 4th Southern Station Chemical Sciences Meeting, GTR-SO-104:69-80, 1994). Frontalure is a combination of frontalin, which is an aggregation pheromone of the southern pine beetle, and a-pinene, a synergistic host oleoresin compound. In most cases, each trap array consisted of a total of six traps: one frontalure-only treatment; one frontalure plus 4-allylanisole treatment, and four traps containing treatments of frontalure plus a 4-allylanisole analog. In one instance a 12-trap array was employed, the array having two traps per treatment.
# (§1) Release rates were determined in preliminary studies using simple gravimetric measurement of bulbs to provide elution in mg/day units. Release rates of all analog compounds were equal to or greater than that of 4-allylanisole. Placement of treatments was originally assigned at random and rotated sequentially with each collection. Each array was collected through two full rotations. Whole traps were moved in order to eliminate the possibility of contamination. Collection cups contained a 5.5×2 cm piece of pest strip, containing as its active ingredient the insecticidal agent 2,2 dichlorovinyldimethylphosphate to kill the captured insects. The numbers of captured southern pine beetle and of predatory clerid beetle Thanasimus dubius, the most important natural enemy of the southern pine beetle, were determined. Data were analyzed using ANOVA (SAS PROC GLM) to determine if the mean numbers of southern pine beetles or clerids were affected by treatment. The positions of the traps were also taken into consideration in the model.
# [3] = Release rate by gravimetric measurement of pipette bulbs; format: physicochemical; conditions: elution from 4-ml Samco pipette bulb, preliminary studies
# Description: as §1
# [4] = 30-second exposure, 3 min after application, at least 20 beetles per trial, 22-25 C
# [5] = compounds marked * : originally tested with sample size of 45-53 beetles, published in Hayes et al. 1994
smiles,measurement,setting,value
Cc1ccccc1C [o-xylene],% REPELLED,southern pine beetle [1]; [4],46%
same,BEHAVIORAL RATING,southern pine beetle [1]; 30-second exposure,2
COc1ccccc1C [2-methylanisole],% REPELLED,southern pine beetle [1]; [4],35%
same,BEHAVIORAL RATING,southern pine beetle [1]; 30-second exposure,1
COc1ccc(C=CC#N)cc1 [4-methoxycinnamonitrile],% REPELLED,southern pine beetle [1]; [5],<20%
COCC(=O)c1ccccc1 [2-methoxyacetophenone],% REPELLED,southern pine beetle [1]; [4],8%
same,BEHAVIORAL RATING,southern pine beetle [1]; 30-second exposure,2
C=CCc1ccccc1 [allylbenzene],% REPELLED,southern pine beetle [1]; [5],>90%
same,"rank (relative repellency, 1 = best repellent)",southern pine beetle [2]; TRIAL 1,5
same,"rank (relative repellency, 1 = best repellent)",southern pine beetle [2]; TRIAL 2,5
same,"rank (relative repellency, 1 = best repellent)",southern pine beetle [2]; TRIAL 5,2
same,"rank (relative repellency, 1 = best repellent)",southern pine beetle [2]; TRIAL 6,4
same,mean rank,southern pine beetle [2],4.0
same,release rate,[3],128.2 mg/day
Cc1ccc(C)cc1 [p-xylene],% REPELLED,southern pine beetle [1]; [4],50%
same,BEHAVIORAL RATING,southern pine beetle [1]; 30-second exposure,2
Cc1ccccc1 [toluene],repelled behavioral response (in words),southern pine beetle [1],modest repellent response
same,BEHAVIORAL RATING,southern pine beetle [1]; 30-second exposure,2
same,"rank (relative repellency, 1 = best repellent)",southern pine beetle [2]; TRIAL 1,2
same,"rank (relative repellency, 1 = best repellent)",southern pine beetle [2]; TRIAL 2,3
same,mean rank,southern pine beetle [2],2.5
same,rank in reduction of trap captures,southern pine beetle [2],second and third
same,release rate,[3],462.6 mg/day
C=Cc1ccc(C)cc1 [4-methylstyrene],repelled behavioral response (in words),southern pine beetle [1],modest repellent response
same,BEHAVIORAL RATING,southern pine beetle [1]; 30-second exposure,2
same,"rank (relative repellency, 1 = best repellent)",southern pine beetle [2]; TRIAL 3,2
same,"rank (relative repellency, 1 = best repellent)",southern pine beetle [2]; TRIAL 4,3
same,mean rank,southern pine beetle [2],2.5
same,rank in reduction of trap captures,southern pine beetle [2],second and third
same,release rate,[3],674.75 mg/day
C=CCc1ccc(O)c(OC)c1 [eugenol],% REPELLED,southern pine beetle [1]; [5],<40%
COc1ccc(C(C)C)cc1 [4-isopropylanisole],% REPELLED,southern pine beetle [1]; [5],>90%
same,"rank (relative repellency, 1 = best repellent)",southern pine beetle [2]; TRIAL 1,4
same,"rank (relative repellency, 1 = best repellent)",southern pine beetle [2]; TRIAL 2,2
same,"rank (relative repellency, 1 = best repellent)",southern pine beetle [2]; TRIAL 3,2
same,"rank (relative repellency, 1 = best repellent)",southern pine beetle [2]; TRIAL 4,5
same,"rank (relative repellency, 1 = best repellent)",southern pine beetle [2]; TRIAL 5,3
same,"rank (relative repellency, 1 = best repellent)",southern pine beetle [2]; TRIAL 6,2
same,mean rank,southern pine beetle [2],3.5
same,release rate,[3],16.45 mg/day
CCc1ccccc1 [ethylbenzene],% REPELLED,southern pine beetle [1]; [4],72%
same,BEHAVIORAL RATING,southern pine beetle [1]; 30-second exposure,3
CCCc1ccccc1O [2-propylphenol],BEHAVIORAL RATING,southern pine beetle [1]; 30-second exposure,2
C=CCc1ccc(OC)cc1 [4-allylanisole],"rank (relative repellency, 1 = best repellent)",southern pine beetle [2]; TRIAL 1,1
same,"rank (relative repellency, 1 = best repellent)",southern pine beetle [2]; TRIAL 2,1
same,"rank (relative repellency, 1 = best repellent)",southern pine beetle [2]; TRIAL 3,1
same,"rank (relative repellency, 1 = best repellent)",southern pine beetle [2]; TRIAL 4,1
same,"rank (relative repellency, 1 = best repellent)",southern pine beetle [2]; TRIAL 5,1
same,"rank (relative repellency, 1 = best repellent)",southern pine beetle [2]; TRIAL 6,1
same,beetles captured relative to other treatments,southern pine beetle [2]; all trials,fewest
same,mean rank,southern pine beetle [2],1.0
same,release rate,[3],15.6 mg/day
COc1ccc(CC#N)cc1 [4-methoxypheylacetonitrile],% REPELLED,southern pine beetle [1]; [5],<30%
CCOc1ccccc1OC [2-ethoxyanisole],% REPELLED,southern pine beetle [1]; [4],40%
same,BEHAVIORAL RATING,southern pine beetle [1]; 30-second exposure,2
CCOc1ccccc1 [phenetole],BEHAVIORAL RATING,southern pine beetle [1]; 30-second exposure,2
COc1ccc(C)cc1 [4-methylanisole],% REPELLED,southern pine beetle [1]; [4],45%
same,BEHAVIORAL RATING,southern pine beetle [1]; 30-second exposure,2
CCCCc1ccccc1 [butylbenzene],% REPELLED,southern pine beetle [1]; [4],39%
same,BEHAVIORAL RATING,southern pine beetle [1]; 30-second exposure,2
Cc1cccc(C)c1 [m-xylene],% REPELLED,southern pine beetle [1]; [4],34%
same,BEHAVIORAL RATING,southern pine beetle [1]; 30-second exposure,2
C=Cc1ccc(OC)cc1 [4-vinylanisole],% REPELLED,southern pine beetle [1]; [4],24%
same,BEHAVIORAL RATING,southern pine beetle [1]; 30-second exposure,2
COc1ccc(C(C)=O)cc1 [4-methoxyacetophenone],% REPELLED,southern pine beetle [1]; [4],96%
same,BEHAVIORAL RATING,southern pine beetle [1]; 30-second exposure,3
CCCc1ccccc1 [propylbenzene],% REPELLED,southern pine beetle [1]; [4],17%
same,BEHAVIORAL RATING,southern pine beetle [1]; 30-second exposure,1
COc1ccc(C=O)cc1 [p-anisaldehyde],% REPELLED,southern pine beetle [1]; [4],65%
same,BEHAVIORAL RATING,southern pine beetle [1]; 30-second exposure,3
CCc1ccccc1O [2-ethylphenol],% REPELLED,southern pine beetle [1]; [4],50%
same,BEHAVIORAL RATING,southern pine beetle [1]; 30-second exposure,2
C/C=C/c1ccc(OC)cc1 [trans-anethole],% REPELLED,southern pine beetle [1]; [5],<20%
same,"rank (relative repellency, 1 = best repellent)",southern pine beetle [2]; TRIAL 3,3
same,"rank (relative repellency, 1 = best repellent)",southern pine beetle [2]; TRIAL 4,4
same,"rank (relative repellency, 1 = best repellent)",southern pine beetle [2]; TRIAL 5,4
same,"rank (relative repellency, 1 = best repellent)",southern pine beetle [2]; TRIAL 6,6
same,mean rank,southern pine beetle [2],4.25
same,release rate,[3],44.65 mg/day
Cc1ccc(C(C)C)cc1 [p-cymene],% REPELLED,southern pine beetle [1]; [4],28%
same,BEHAVIORAL RATING,southern pine beetle [1]; 30-second exposure,2
COc1ccccc1CO [2-methoxybenzyl alcohol],% REPELLED,southern pine beetle [1]; [4],0%
same,BEHAVIORAL RATING,southern pine beetle [1]; 30-second exposure,1
COc1cccc(CO)c1 [3-methoxybenzyl alcohol],% REPELLED,southern pine beetle [1]; [4],0%
same,BEHAVIORAL RATING,southern pine beetle [1]; 30-second exposure,1
COc1ccc(C(C)(C)C)cc1 [4-tert-butylanisole],% REPELLED,southern pine beetle [1]; [4],0%
same,BEHAVIORAL RATING,southern pine beetle [1]; 30-second exposure,1
COc1ccccc1 [anisole],% REPELLED,southern pine beetle [1]; [5],>80%
same,"rank (relative repellency, 1 = best repellent)",southern pine beetle [2]; TRIAL 1,3
same,"rank (relative repellency, 1 = best repellent)",southern pine beetle [2]; TRIAL 2,4
same,"rank (relative repellency, 1 = best repellent)",southern pine beetle [2]; TRIAL 3,4
same,"rank (relative repellency, 1 = best repellent)",southern pine beetle [2]; TRIAL 4,2
same,"rank (relative repellency, 1 = best repellent)",southern pine beetle [2]; TRIAL 5,5
same,"rank (relative repellency, 1 = best repellent)",southern pine beetle [2]; TRIAL 6,3
same,mean rank,southern pine beetle [2],3.5
same,release rate,[3],52.2 mg/day
CCCc1ccccc1OC [2-propylanisole],% REPELLED,southern pine beetle [1]; [4],8%
same,BEHAVIORAL RATING,southern pine beetle [1]; 30-second exposure,2
CC(C)c1ccccc1 [cumene],% REPELLED,southern pine beetle [1]; [4],55%
same,BEHAVIORAL RATING,southern pine beetle [1]; 30-second exposure,3
COc1cccc(C(C)=O)c1 [3-methoxyacetophenone],% REPELLED,southern pine beetle [1]; [4],8%
same,BEHAVIORAL RATING,southern pine beetle [1]; 30-second exposure,2
